Values joined by “and” are separate entries in the source; they are usually repeats but may differ in a detail not shown here. Identical values can stand only once.
Experiments:
Conditions in all cases: 48 h
NCI-H295R [1] = test: IC50 (antiproliferative, ATP content)
NCI-H295R [2] = test: maximal response (efficacy) relative to DMSO (0%) and doxorubicin (-100%); higher = less growth inhibition
NCI-H295R [3] = test: IC50 (antiproliferative, ATP content); remark: listed apart in the source
Summary of the method: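 Adrenocortical carcinoma cells were plated at 1500 per well in 1536-well plates in serum-free DMEM with ITS supplement, left overnight, then given library compounds by pin transfer at 8 final concentrations spanning 0.6 nM to 46 µM and held 48 h at 37 °C, 5% CO2. ATP was measured as CellTiter-Glo luminescence after 20 min at room temperature and scaled between vehicle and positive-control wells. A four-parameter logistic model was fitted to each series. The IC50 was taken from these fits, and compounds without a concentration response were recorded as above the top dose.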

Row | IC50 (NCI-H295R [3]) | Compound | IC50 (NCI-H295R [1]) | maximal response (NCI-H295R [2])
1 | – | O[C@]([C@@]([H])2CC3)(CC[C@@H]4[C@@](CO5)=CC5=O)[C@]4(C)C[C@@H](O)[C@]2([H])[C@]1(CO)[C@@]3(O)C[C@@H](O[C@H]6[C@H](O)[C@H](O)[C@@H](O)[C@H](C)O6)C[C@H]1O | 0.0841 µM and 0.106 µM | -111% and -116%
2 | – | OC[C@H]1O[C@@H](n2cnc3c(S)ncnc32)[C@H](O)[C@@H]1O | 2.99 µM | -68.2%
3 | – | COc1cc(NCc2ccc3nc(N)nc(N)c3c2C)cc(OC)c1OC.Cl.Cl.Cl | 0.0133 µM | -80.4%
4 | – | Cc1cc(C(C#N)c2ccc(Cl)cc2)c(Cl)cc1NC(=O)c1cc(I)cc(I)c1O (stereo not given) | 4.22 µM | -130%
5 | – | O=[C@@](OC)[C@](C(N3)=C4C2=C3C=CC=C2)([C@@]5=CC([C@]69[C@]8([H])[C@](C=CCN8CC9)(CC)[C@@H](OC(C)=O)[C@](O)([C@](OC)=O)[C@@]([H])6N7C=O)=C7C=C5OC)C[C@H]1C[C@](CC)(O)CN(CC4)C1 | – | -44.6%
6 | – | O=C1c2cccc(O)c2C(=O)c2c(O)cccc21 | – | -35.8%
7 | – | COC(=O)Nc1nc2cc(C(=O)c3cccs3)ccc2[nH]1 | – | -53.8%
8 | – | COC(=O)C1=C(C#N)NC(C)=C(C(=O)OC(C)C)C1c1cccc([N+](=O)[O-])c1 (stereo not given) | – | -23.9%
9 | – | [O-][n+]1ccccc1SSc1cccc[n+]1[O-] | – | -23.5%
10 | – | CC(CN(C)C)CN1c2ccccc2Sc2ccc(C(F)(F)F)cc21.O=C(O)C=CC(=O)O (stereo not given) | – | -30.2%
11 | > 46 µM | C[C@]12CC[C@@H]3c4ccc(O)cc4CC[C@H]3[C@@H]1CC[C@@H]2OC(=O)CCC1CCCC1 | – | -33.7%
12 | – | O=C(Nc1ccc(Cl)cc1)Nc1ccc(Cl)c(Cl)c1 | – | -41.7%
13 | – | COc1cc([C@@H]2c3cc4c(cc3[C@H](O)[C@H]3COC(=O)[C@H]23)OCO4)cc(OC)c1OC | – | -50.8%
14 | – | COCCOC(=O)C1=C(C)NC(C)=C(C(=O)OC/C=C/c2ccccc2)C1c1cccc([N+](=O)[O-])c1 (stereo not given) | – | -49.9%
15 | – | CC(C)c1c(C(=O)Nc2ccccc2)c(-c2ccccc2)c(-c2ccc(F)cc2)n1CC[C@@H](O)C[C@@H](O)CC(=O)[O-].CC(C)c1c(C(=O)Nc2ccccc2)c(-c2ccccc2)c(-c2ccc(F)cc2)n1CC[C@@H](O)C[C@@H](O)CC(=O)[O-].[Ca+2] | – | -29.1%
16 | – | O=C(CCCCCCC(=O)Nc1ccccc1)NO | – | -37.1%
17 | – | O=C(Nc1ncc([N+](=O)[O-])s1)c1cccs1 | – | -58.5%
18 | > 46 µM | OC(=O)[C@]3(C)C[C@H]4/C5=C/C(=O)[C@H]2[C@@](C)(CC[C@@H]1[C@]2(C)CC[C@H](O)C1(C)C)[C@]5(C)CC[C@@]4(C)CC3 | – | -50.7%
19 | – | C[C@]12C/C(=C/O)C(=O)C[C@@H]1CC[C@@H]1[C@@H]2CC[C@@]2(C)[C@H]1CC[C@]2(C)O | – | -34.1%
20 | – | C[C@]12CCC(=O)C=C1[C@@H]1C[C@@H]1[C@H]1[C@@H]3[C@@H]4C[C@@H]4[C@@]4(CCC(=O)O4)[C@@]3(C)CC[C@@H]12 | – | -33.2%
21 | – | O=C1c2ccccc2C(=O)C1c1ccccc1 | – | -24.9%
22 | – | O=[C@@](OC)[C@](C(N3)=C(C4)C2=C3C=CC=C2)([C@@]5=CC([C@]69[C@]8([H])[C@](C=CCN8CC9)(CC)[C@@H](OC(C)=O)[C@](O)([C@](OC)=O)[C@@]([H])6N7C)=C7C=C5OC)C[C@]1([H])C=C(CC)CN4C1.O=C(O)C(O)C(O)C(O)=O.O=C(O)C(O)C(O)C(O)=O | – | -56.6%
23 | – | Cl.Cl.OCCN1CCN(CCCN2c3ccccc3C=Cc3ccccc32)CC1 | – | -69.8%

Row | IC50 (NCI-H295R [3]) | Compound | IC50 (NCI-H295R [1]) | maximal response (NCI-H295R [2])
24 | – | CCCCc1ccc2[nH]c(NC(=O)OC)nc2c1 | – | -49.6%
25 | – | Oc1ccc(Cl)c2cccnc12 | – | -33.2%
26 | – | COc1c(C)c2c(c(O)c1C/C=C(\C)CCC(=O)O)C(=O)OC2 | – | -29.5%
27 | – | COc1cc(C(=O)OCCCN2CCCN(CCCOC(=O)c3cc(OC)c(OC)c(OC)c3)CC2)cc(OC)c1OC | – | -31.2%
28 | – | COc1cc(/C=C/C(=O)O[C@H]2CC[C@]34C[C@]35CC[C@]3(C)[C@@H]([C@H](C)CCC=C(C)C)CC[C@@]3(C)[C@@H]5CC[C@H]4C2(C)C)ccc1O | – | -40.3%
29 | – | CCOC(=O)Oc1c(OC)cc(cc1OC)C(=O)O[C@@H]4C[C@@H]5CN6CC\C3=C(\Nc2cc(OC)ccc23)[C@H]6C[C@@H]5[C@H](C(=O)OC)[C@H]4OC | – | -30.6%
30 | – | CN1C(=O)C(O)N=C(c2ccccc2)c2cc(Cl)ccc21 (stereo not given) | – | -27.8%
31 | – | Cc1ccc2c(Br)cc(Br)c(O)c2n1 | – | -71.4%
32 | – | COc1cc2c(c(OC)c1OC)-c1ccc(OC)c(=O)cc1[C@@H](NC(C)=O)CC2 | – | -49.9%
33 | – | CC1(C)C3=C(C=CC=C3)/C(C2=C1C=CC=C2)=C/CCN(C)C.Cl | – | -21.5%
34 | – | CC(C)[C@H](N)C(=O)OCC(CO)OCn1cnc2c(=O)nc(N)[nH]c21.Cl (stereo not given in full) | – | -28.1%
35 | – | CN(C)CCCN1c2ccccc2CCc2ccc(Cl)cc21 | – | -31.2%
36 | – | CCCCN(CCCC)CC(O)c1cc(Cl)cc2c1-c1ccc(Cl)cc1/C2=C/c1ccc(Cl)cc1 (stereo not given) | – | -31.5%
37 | – | COC(=O)c1ccccc1C(=O)c1ccc(OCCN2CCCCC2)cc1.Cl | – | -26.8%
38 | – | CCCOc1ccc2nc(NC(=O)OC)sc2c1 | – | -48.5%
39 | – | O=c1[nH]c2ccccc2n1CCCN1CCC(n2c(=O)[nH]c3cc(Cl)ccc32)CC1 | – | -25.4%
40 | – | CC(=O)Oc1ccc2c(c1)CC[C@@H]1[C@@H]2CC[C@]2(C)[C@@H](O)CC[C@@H]12 | – | -30.8%
41 | – | CC(C)(COP(=O)([O-])OP(=O)([O-])OC[C@H]1O[C@@H](n2cnc3c(N)ncnc32)[C@H](O)[C@@H]1OP(=O)([O-])O)C(O)C(=O)NCCC(=O)NCCS.O.O.[Li+].[Li+].[Li+] (stereo not given in full) | – | 33%
42 | – | Cc1cc2nc3c(=O)[nH]c(=O)nc-3n(C[C@H](O)[C@H](O)[C@H](O)COP(=O)([O-])OP(=O)([O-])OC[C@H]3O[C@@H](n4cnc5c(N)ncnc54)[C@H](O)[C@@H]3O)c2cc1C.[Na+].[Na+] | – | 22%
43 | – | COC(=O)Nc1nc2cc(C(=O)c3ccccc3)ccc2[nH]1 | – | -50.2%
44 | – | COc1cccc(N(C)C(=S)Oc2ccc3c(c2)CCCC3)n1 | – | -47.1%
45 | – | COc1c(C)c2c(c(O)c1CC=C(C)CCC(=O)OCCN1CCOCC1)C(=O)OC2 | – | -54.6%
46 | – | Nc1ccc(C(=O)Nc2ccccc2N)cc1 | – | -43.9%

Row | IC50 (NCI-H295R [3]) | Compound | IC50 (NCI-H295R [1]) | maximal response (NCI-H295R [2])
47 | – | O=C2N(CCC8)[C@]8([H])[C@@](O[C@](C)1N[C@]([C@@H]6C=C([C@]7([H])N(C)C6)C5=C4C(C7)=CNC4=CC=C5)=O)(O)N([C@H]2CC3=CC=CC=C3)C1=O.O=C%10N(CCC%16)[C@]%16([H])[C@@](O[C@](C)9N[C@]([C@@H]%14C=C([C@]%15([H])N(C)C%14)C%13=C%12C(C%15)=CNC%12=CC=C%13)=O)(O)N([C@H]%10CC%11=CC=CC=C%11)C9=O.O[C@@H](C(O)=O)[C@@H](O)C([O-])=O | – | -31.1%
48 | – | CN(Cc1ccc(C(C)(C)C)cc1)Cc1cccc2ccccc12 | – | -43.8%
49 | – | COC(=O)C1=C(C)NC(C)=C(C(=O)OCC(C)C)C1c1ccccc1[N+](=O)[O-] (stereo not given) | – | -32.8%
50 | – | COc1cc(C=C2CCCC(=Cc3ccc(O)c(OC)c3)C2=O)ccc1O | – | -130%
51 | – | C[C@@H]1CCC2[C@@H](C)[C@@H](O)O[C@@H]3O[C@@]4(C)CC[C@@H]1[C@@]23OO4 (stereo not given in full) | – | -56.4%
52 | – | CCOC(=O)[C@@H](CCc1ccccc1)N[C@@H]1CCc2ccccc2N(CC(=O)O)C1=O.Cl | – | -30.1%
53 | – | O=[N+]([O-])c1c(Cl)cccc1-c1c[nH]cc1Cl | – | -29.2%
54 | – | CC(=O)[O][Co][N]1/C2=C(/C)C3=N/C(=C\C4=NC(=C(/C)C5=N[C@H]([C@H](CC(N)=O)[C@@]5(C)CCC(=O)NCC(C)OP(=O)(O)O[C@H]5[C@@H](O)[C@@H](n6cnc7cc(C)c(C)cc76)O[C@@H]5CO)[C@@]1(C)[C@@](C)(CC(N)=O)[C@@H]2CCC(N)=O)/[C@@H](CCC(N)=O)C4(C)C)[C@@H](CCC(N)=O)[C@]3(C)CC(N)=O (stereo not given in full) | – | -34.1%
55 | – | S=C1SCN(Cc2ccccc2)CN1Cc1ccccc1 | – | -29.7%
56 | – | COC(=O)Nc1nc2cc(Sc3ccccc3)ccc2[nH]1 | – | -54.1%
57 | – | Nc1ncnc2c1ncn2[C@@H]1O[C@H](COP(=O)(O)O)[C@@H](O)[C@@H]1O | – | 22%
58 | – | COC1=CC(=O)C[C@@H](C)[C@]12Oc1c(Cl)c(OC)cc(OC)c1C2=O | – | -30.5%
59 | – | CC1=CC(=O)[N-]S(=O)(=O)O1.[K+] | – | -79.3%
60 | – | COc1cc2c(cc1OC)C(C(C(=O)N(CCc1ccc(OC)c(OC)c1OC)CCc1ccc(OC)c(OC)c1OC)c1ccccc1)=NCC2.Cl (stereo not given) | – | -28.4%
61 | – | O=C(NC(=O)c1c(F)cccc1F)Nc1ccc(Cl)c(Oc2ncc(C(F)(F)F)cc2Cl)c1 | – | -39.7%
62 | – | O[C@@]3(C#C)CC[C@H]2[C@@H]4CC/C1=C/c5oncc5C[C@]1(C)[C@H]4CC[C@@]23C | – | -27.4%
63 | – | F\C1=C\N(C(=O)NC1=O)[C@H]2C[C@H](O)[C@@H](CO)O2 | – | -37.6%
64 | – | CNCC/C=C2/C1=C(CCC3=C2C=CC=C3)C=CC=C1.Cl | – | -38.9%
65 | – | NC(=O)N/N=C/c1ccc([N+](=O)[O-])o1 | – | -20.7%
66 | – | N\1(C(N(C(CC)C)/N=C/1)=O)c7ccc(N2CCN(CC2)c6ccc(OC[C@@H]5O[C@](c3c(cc(cc3)Cl)Cl)(Cn4ncnc4)OC5)cc6)cc7 (stereo not given in full) | – | -23.1%
67 | – | O=C([O-])C1=C(CSc2nnnn2CS(=O)(=O)[O-])CS[C@@H]2[C@H](NC(=O)[C@H](O)c3ccccc3)C(=O)N12.[Na+].[Na+] | – | 25.5%
68 | – | CCCSc1ccc2[nH]c(NC(=O)OC)nc2c1 | – | -55.1%
69 | – | COCc1c(C(C)C)nc(C(C)C)c(/C=C/[C@@H](O)C[C@@H](O)CC(=O)[O-])c1-c1ccc(F)cc1.[Na+] | – | -23.2%
